pIC50: −log10 of the molar value.
Legend:
GLT-1 = target: T1, GLT-1 (Homo sapiens, UniProt P43004); assay: 3H-glutamate uptake counter assay in HEK293 cells overexpressing human GLT-1; type: cell-based
T1 construct: host or cells: HEK293 (virus made in GP293 packaging cells)
Procedure: The compound was obtained by screening of a library containing more than 50,000 lead-like compounds and fragments. The library was tested using a functional citrate uptake assay with HEK293 cells overexpressing recombinant human INDY. The following hit confirmation was conducted in the same assay system. To confirm the activity of selected compounds on the target INDY another cell assay was conducted. In this assay system citrate uptake was measured using HepG2 cells which endogenously express INDY. Furthermore selectivity of selected compounds was tested for two other transporters in different assay systems. The first transporter was the glutamate transporter GLT-1 tested in a glutamate uptake assays using HEK293 cells overexpressing recombinant human GLT-1. The second transporter was the glucose transporter GLUT1 tested in a glucose uptake assay using Huh-7 cells which endogenously express GLUT1. Compounds were considered to be selective with an at least 5-fold higher activity for INDY than for the other two transporters.
Cells were maintained in cell medium using cell culture grade flasks (CellSTACK Corning, 500 cm2 dishes or T175 depending on cell number). The selection antibiotic and G418 (800 μg/ml) was added during cultivation but not for seeding into assay plates. For splitting, cells were washed with PBS (w/o Ca2+, Mg2+, phenol red) and detached with Trypsin/EDTA. Throughout cultivation cells were kept sub-confluent. Detached cells (50,000 cells/well) were seeded in 96-well plates (white, clear bottom from Corning #655098) and incubated over night before usage in the assay. The following media were used. For HEK293 cells expressing INDY MEM (PAA)+10% FCS+1×P/S+2 mM L-Gln; for HEK293 cells expressing GLT-1 DMEM (Gibco)+10% FCS+400 µg/ml G418; for Huh7 cells DMEM (Gibco)+10% FCS+2 mM L-Gin (+1×P/S); for HepG2 cells MEM (PAA, Cat # E15-024)+10% FCS+2 mM L-Gin+1×NEAA+1 mM Na-Pyruvat
The following assay buffers for the particular uptake reaction were used. Citrate uptake buffer: 120 mM NaCl, 5.4 mM KCl, 0.8 mM MgSO4, 5 mM glucose, 1.8 mM CaCl2, 25 mM Hepes, 25 mM MES, pH 6.5. Glutamate uptake buffer: HBSS, 1 mM CaCl2, 1 mM MgCl2, 20 mM Hepes pH 7.4. Glucose uptake buffer: 25 mM Hepes+25 mM MES pH 7.4, 120 mM NaCl, 5.4 mM KCl, 1.8 mM CaCl2, 0.8 mM MgSO4.
As a counter assay, Glutamate uptake by the GLT-1 transporter was used. The principle of the assay is to measure the uptake of ^3H labelled glutamate into HEK cells, which overexpress human GLT-1.
The generation of a GLT-1 cell line was performed as follows: human GLT11 isoform sv1 cDNA (Origene # RC223924) was cloned into vector pFB-Neo-CMV-hGLT1 using QIAfilter Plasmid Midi Kit (Qiagen). Virus was generated in GP293 packaging cells (transfection of plasmid with Lipofectamine 2000+OptiMEM). For transfection into HEK cells GP293, supernatant containing virus was passed through a 0.45 micron sterile filter and DEAE-dextran was added at […] final concentration. The solution was used to transfect HEK293 cells at 37° C., 8.5% CO2. After 24 h selection marker G418 at 400 μg/ml was added and cultivation medium performed in DMEM 10% FBS.
The assay was performed in a 96-well format using repeated washing steps, cell lysis and addition of scintillation fluid. Assay buffer was HBSS, 1 mM CaCl2, 1 mM MgCl2, […] pH 7.4. Cells were seeded into white clear-bottom 96-well plates (50,000/well) in the presence of Poly-D-Lysine and incubated at 37° C. for 16-24 hours. Subsequently the plates were washed once with assay buffer using automated washing/LS 405 Selectors, BioTek ending with a buffer volume of 40 μl. Then 5 μl of compound solution in assay buffer was added and incubated for 20 min at 37° C. in cell incubator, HERA cell Heraeus. Afterwards 10 μl of substrate 3H-Glu (3 nM) were added and incubated for another 20 min at 37° C. in cell incubator, HERAcell. Then the plates were washed once with 200 μl cold assay buffer and 150 μl scintillation fluid was added. […]

INDY = INDY (Homo sapiens, UniProt Q86YT5); assay: 14C-citrate uptake in HEK293 cells overexpressing recombinant human INDY (NaCT); type: cell-based; parameters: expressed in transfected cells; host or cells: HEK293
In short: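 HEK293 cells overexpressing human NaCT, 50,000/well, preincubated 5-30 min at 37 °C with compound in pH 6.5 Na+ buffer. 14C-citrate ([…]) uptake then ran 20-90 min at 37 °C, followed by ice-cold washes, NaOH lysis and scintillation counting. 10 mM citrate served as positive control.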

T1 sequence (P43004 whole entry): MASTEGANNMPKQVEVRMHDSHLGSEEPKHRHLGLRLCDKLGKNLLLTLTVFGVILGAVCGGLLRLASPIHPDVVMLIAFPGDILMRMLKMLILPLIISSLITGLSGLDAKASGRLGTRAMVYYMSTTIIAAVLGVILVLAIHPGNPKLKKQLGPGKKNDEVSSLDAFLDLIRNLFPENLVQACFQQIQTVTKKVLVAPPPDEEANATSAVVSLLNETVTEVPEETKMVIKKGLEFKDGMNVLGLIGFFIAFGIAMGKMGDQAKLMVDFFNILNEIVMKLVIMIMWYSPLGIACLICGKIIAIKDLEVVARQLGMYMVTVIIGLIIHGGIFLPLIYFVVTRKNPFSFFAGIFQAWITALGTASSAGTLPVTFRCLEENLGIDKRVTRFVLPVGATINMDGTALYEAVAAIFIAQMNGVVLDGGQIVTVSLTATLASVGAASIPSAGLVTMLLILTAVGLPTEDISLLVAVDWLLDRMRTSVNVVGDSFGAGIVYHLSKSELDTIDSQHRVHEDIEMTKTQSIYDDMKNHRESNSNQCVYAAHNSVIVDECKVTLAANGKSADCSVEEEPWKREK
INDY, sequence (Q86YT5 whole entry): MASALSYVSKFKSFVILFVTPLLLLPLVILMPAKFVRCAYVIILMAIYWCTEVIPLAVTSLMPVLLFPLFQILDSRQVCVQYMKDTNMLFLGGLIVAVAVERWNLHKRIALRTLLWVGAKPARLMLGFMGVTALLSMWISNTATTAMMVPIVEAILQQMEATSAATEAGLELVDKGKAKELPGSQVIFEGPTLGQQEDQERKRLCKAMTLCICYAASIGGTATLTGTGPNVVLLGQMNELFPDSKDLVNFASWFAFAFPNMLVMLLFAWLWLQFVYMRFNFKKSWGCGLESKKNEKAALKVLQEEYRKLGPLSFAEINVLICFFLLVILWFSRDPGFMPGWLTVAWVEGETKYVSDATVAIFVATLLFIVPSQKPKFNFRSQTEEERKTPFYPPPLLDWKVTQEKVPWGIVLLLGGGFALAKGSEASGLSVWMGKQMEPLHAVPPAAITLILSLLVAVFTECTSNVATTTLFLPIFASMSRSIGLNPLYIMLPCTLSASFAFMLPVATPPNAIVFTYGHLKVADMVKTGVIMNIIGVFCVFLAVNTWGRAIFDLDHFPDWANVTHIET

Compound	pIC50 (GLT-1)	pIC50 (INDY)
CC(C)(C)c1ccc(S(=O)(=O)N2CCC(C(=O)NCc3ccccc3F)CC2)cc1 [Example 12, 1-(4-tert-butylbenzenesulfonyl)-N-[(2-fluorophenyl)methyl]piperidine-4-carboxamide]	< 4.70	6.70
O=C(NCc1ccccc1F)C1CCN(S(=O)(=O)c2ccc(C(F)(F)F)cc2)CC1 [Example 25, N-[(2-fluorophenyl)methyl]-1-[4-(trifluoromethyl)benzenesulfonyl]piperidine-4-carboxamide]	< 4.70	< 4.70
COc1ccccc1CNC(=O)C1CN(S(=O)(=O)c2ccc(C(C)(C)C)cc2)C1 [Example 50, 1-(4-tert-butylbenzenesulfonyl)-N-[(2-methoxyphenyl)methyl]azetidine-3-carboxamide]	< 4.70	5.36
O=C(NCc1ccccn1)C1CCN(S(=O)(=O)c2ccc(S(F)(F)(F)(F)F)cc2)CC1 [Example 86, 1-[4-(pentafluoro-lambda6-sulfanyl)benzenesulfonyl]-N-[(pyridin-2-yl)methyl]pipendine-4-carboxamide]	< 4.70	5.96

Next, values leading:

pIC50 (GLT-1)	pIC50 (INDY)	Compound
< 4.30	5.54	O=C(NCc1ccccc1F)C1CCN(S(=O)(=O)/C=C/c2ccccc2)CC1 [Example 5]
< 4.70	7.00	O=C(NCc1ccccc1F)C1CCN(S(=O)(=O)c2cc(Cl)cc(Cl)c2)CC1 [Example 44, 1-(3,5-dichlorobenzenesulfonyl)-N-[(2-fluorophenyl)methyl]piperidine-4-carboxamide]
< 4.70	6.10	O=C(NCc1ccccn1)C1CCN(S(=O)(=O)c2cc(Cl)cc(Cl)c2)CC1 [Example 55, 1-(3,5-dichlorobenzenesulfonyl)-N-[(pyridin-2-yl)methyl]piperidine-4-carboxamide]
< 4.70	5.39	O=C(NCc1ccccn1)C1CCN(S(=O)(=O)c2ccc(C(F)(F)F)cc2)CC1 [Example 57, N-[(pyridin-2-yl)methyl]-1-[4-(trifluoromethyl)benzenesulfonyl]piperidine-4-carboxamide]
< 4.70	6.22	O=C(NCc1ccccc1CO)C1CCN(S(=O)(=O)c2cc(Cl)cc(Cl)c2)CC1 [Example 87, 1-(3,5-dichlorobenzenesulfonyl)-N-{[2-(hydroxymethyl)phenyl]methyl}piperidine-4-carboxamide]
< 4.70	6.52	O=C(NCc1ccccn1)C1CCN(S(=O)(=O)c2cc(Cl)cc(C3CC3)c2)CC1 [Example 101, 1-(3-chloro-5-cyclopropylbenzenesulfonyl)-N-[(pyridin-2-yl)methyl]piperidine-4-carboxamide]
